Peptide text beside a SMILES is read from it. * marks the point of attachment. Cbz = O=C(OCc1ccccc1)* A value given as a limit tells only on which side of the number the result lay.

A word on the inhibition: it is the drop in the measured response relative to a control, in per cent.

Format in all cases: cell-based, mouse
Assay [1] has as its system E3D1 MECs. The assay can be described thus: Pulsed time course of Rhod-Ln internalization, flow cytometry. Conditions: pulsed, 24 hrs post laminin labeling, n=4; for MFI of internal Rhod-Ln in presence of inhibitor: vehicle 105.5±3. How it is done: (§1) To explore the dynamics of laminin internalization, steady-state time course experiments (measuring internalization in the continuous presence of labeled laminin) and pulsed time course experiments were performed. In pulsed time course experiments, the cells were exposed to exogenous Rhod-Ln at 4° C. to prevent internalization, excess unbound Rhod-Ln was washed away, and then cells were returned to 37° C. to allow synchronized internalization and trafficking to proceed. […] Following pulsed and synchronized laminin exposure, Rhod-Ln was again observed to internalize within 1 hour, but reached a maximum at 8 hours, after which the levels of internal laminin declined (FIG. 4A). After 24 hours, internal Rhod-Ln levels declined to ˜37% of the maxima, indicating degradation (MFI: 315±3.5 to 119±11.5). To determine if laminin was degraded using classical degradation pathways, pulsed time course experiments in the presence of leupeptin (lysosome inhibitor) or […] (proteasome inhibitor) were performed.
Laminin labeling—Laminin-111 (1 mg) (Sigma-Aldrich Corp., St. Louis, Mo., USA) was dialyzed twice overnight against 500 ml of PBS with 10 μM CaCl2. The dialyzed laminin was then reacted with 10 μg NHS-rhodamine, or a 50 fold molar excess of NHS409 CypHer5 (GE) for 2 hr on ice, followed by dialysis twice overnight against 500 ml of PBS with 10 μM CaCl2.
Flow Cytometry—Cells were plated in 12 well plates at 200,000 cells/well. The following day, media was changed to serum-free media with or without 10 μg/ml rhodamine laminin or 40 μg/ml FITC-dextran (500S-Sigma-Aldrich Corp., St. Louis, Mo., USA). Unless otherwise indicated, cells were incubated 18-24 hrs, washed once with PBS, and cells trypsinized. Cells were washed in 5 ml cold PBS/1 mM EDTA, pelleted, and resuspended in 1 ml PBS/1 mM EDTA. Using a BD FACScan flow cytometer (BD Biosciences, San Jose, Calif., USA), 10,000 cells/well were counted, background fluorescence from the cell counts with no added laminin subtracted and the mean fluorescence intensity values reported. Graphed data are compiled from duplicate wells from each experiment with a minimum of three separate experiments, unless indicated otherwise.

For assay [2], the system named is E3D1 MECs. In words: Steady-state laminin internalization, flow cytometry. Conditions: 18 hrs; for MFI of steady-state laminin endocytosis in presence of MMP inhibitor: GM6001 50 μM (vehicle 20.2±1.82, n=4), BB2416 5 μM (vehicle 20.85, n=2); for effect of MMP inhibitor on steady-state laminin endocytosis: GM6001 50 μM, BB2416 5 μM. How it is done:
Endocytic internalization of laminin was confirmed by multiple methods. Laminin was labeled with the pH-sensitive fluorescent label CypHer-5 (CyPher-Ln) to exclusively image internalized laminin in attached, living cells. The fluorophore CypHer-5 is non fluorescent at pH 7.4 and maximally fluorescent at pH 5.5, permitting fluorescence detection of laminin within intracellular acidic vesicles (pH 4.8-6.0). Following overnight incubation of MECs with CypHer-Ln, live cell imaging detected bright fluorescent vesicles moving rapidly within the cytoplasm (FIG. 3A). Intracellular laminin within the cytoplasm was also independently observed via removal of surface bound laminin followed by confocal imaging. MECs were exposed to 10 μg/ml Rhod-Ln for 18 hrs, trypsinized, washed with PBS/EDTA to remove surface-bound laminin, allowed to re-attach, and stained with the membrane marker FITC-concanavalin A (conA). […] This method of cell treatment permitted a quantitative, flow cytometry-based assay of laminin internalization. In this assay, cells incubated with Rhod-Ln were trypsinized, washed (as in FIG. 3B), and the remaining internal Rhod-Ln fluorescence quantified by flow cytometry. Using this assay, laminin internalization was confirmed in diverse cell types including in primary mammary epithelial cultures, mammary epithelial cell lines (E3D1, MEpG), […] fibroblasts (NIH 3T3 cells), primary astrocytes, and human cancer cell lines (breast and glioma).
as §1
Laminin internalization could be mediated by either receptor-dependent or receptor independent mechanisms (e.g. pinocytosis). Steady-state laminin internalization was measured using flow cytometry in the presence of potential inhibitors and compared to internalization of 500S FITC-dextran, a molecule of similar molecular size to laminin known to be endocytosed by receptor-independent mechanisms. The specific inhibitor of dynamin, dynasore (Macia E et al, Dev Cell, 839-850 (2006); incorporated by reference herein), inhibited internalization of laminin by >75% (FIG. 6A). Under hypertonic sucrose, a condition known to inhibit receptor-mediated endocytosis (Heuser J E and Anderson R G, J Cell Biol 108, 389-400 (1989); incorporated by reference herein) laminin internalization was reduced by 65% (FIG. 6A). Addition of heparin, a molecule known to bind the laminin LG4-5 domain (Harrison D et al, J Biol Chem 282, 11573-11581 (2007); incorporated by reference herein), decreased laminin internalization by 69% relative to controls (FIG. 6A). […] Specifically, under steady state, laminin internalization was nearly linear throughout the 24 hour time course, whereas dextran internalization plateaued after 16 hrs.
Flow Cytometry—Cells were plated in 12 well plates at 200,000 cells/well. The following day, media was changed to serum-free media with or without 10 μg/ml rhodamine laminin or 40 μg/ml FITC-dextran (500S-Sigma-Aldrich Corp., St. Louis, Mo., USA). […]

Assay [3] concerns E3D1 MECs. The assay can be described thus: FITC-dextran (500S) internalization, flow cytometry. As to conditions: steady state, 24 hour time course. On the procedure:
Laminin internalization could be mediated by either receptor-dependent or receptor independent mechanisms (e.g. pinocytosis). Steady-state laminin internalization was measured using flow cytometry in the presence of potential inhibitors and compared to internalization of 500S FITC-dextran, a molecule of similar molecular size to laminin known to be endocytosed by receptor-independent mechanisms. The specific inhibitor of dynamin, dynasore (Macia E et al, Dev Cell, 839-850 (2006); incorporated by reference herein), inhibited internalization of laminin by >75% (FIG. 6A). Under hypertonic sucrose, a condition known to inhibit receptor-mediated endocytosis (Heuser J E and Anderson R G, J Cell Biol 108, 389-400 (1989); incorporated by reference herein) laminin internalization was reduced by 65% (FIG. 6A). Addition of heparin, a molecule known to bind the laminin LG4-5 domain (Harrison D et al, J Biol Chem 282, 11573-11581 (2007); incorporated by reference herein), decreased laminin internalization by 69% relative to controls (FIG. 6A). […]
Flow Cytometry—Cells were plated in 12 well plates at 200,000 cells/well. […] Using a BD FACScan flow cytometer (BD Biosciences, San Jose, Calif., USA), 10,000 cells/well were counted, background fluorescence from the cell counts with no added laminin subtracted and the mean fluorescence intensity values reported. […]

Setting [4] is: Mus musculus, steady-state, 10 μg/ml Rhod-Ln, 40 μM dynasore, 320 mM sucrose, 100 μg/ml heparin.

Regarding `CC(=O)N[C@@H](CC(C)C)C(=O)N[C@@H](CC(C)C)C(=O)N[C@H](C=O)CCCNC(=N)N` [leupeptin], in assay [1], the “increase in internal Rhod-Ln compared to vehicle controls” value was determined as 153% and the “MFI of internal Rhod-Ln in presence of inhibitor” value is recorded as 266±11.2.
`OC[C@H]1O[C@@](CO)(O[C@H]2O[C@H](CO)[C@@H](O)[C@H](O)[C@H]2O)[C@@H](O)[C@@H]1O` [sucrose]: the inhibition at 320000 µM in assay [2] (setting [4]) was 65%.
Regarding `CNC(=O)[C@H](Cc1c[nH]c2ccccc12)NC(=O)[C@@H](CC(=O)NO)CC(C)C` [GM6001], in assay [2], the “MFI of steady-state laminin endocytosis in presence of MMP inhibitor” value was found to be 18.62±1 and the “effect of MMP inhibitor on steady-state laminin endocytosis” value is reported as “no significant effect”.
For `CNC(=O)[C@@H](NC(=O)[C@H](CC(C)C)[C@H](O)C(=O)NO)C(C)(C)C` [BB2416] the same measures were 20.46 and “no significant effect”.
On to `CC(C)C[C@@H](C=O)NC(=O)[C@H](CC(C)C)NC(=O)[C@H](CC(C)C)NC(=O)OCc1ccccc1` [MG-231] (Cbz-Leu-Leu-Leu-aldehyde), for which, in assay [1], the “increase in internal Rhod-Ln compared to vehicle controls” value is reported as 59% and the “MFI of internal Rhod-Ln in presence of inhibitor” value stood at 167.5±7.
On to `O=C(N/N=C/c1ccc(O)c(O)c1)c1cc2ccccc2cc1O` [dynasore], for which the inhibition at 40 µM in assay [2] (setting [4]) is > 75%.
As to heparin, in assay [2] (steady-state, 10 μg/ml Rhod-Ln, 40 μM dynasore, 320 mM sucrose, 100 μg/ml heparin), the “inhibition of laminin internalization” value is 69%.
In the case of FITC-dextran, the “time to plateau of dextran internalization” value in assay [3] was > 16 h.

Values taken from patent US20170307610A1, “COMPOUNDS THAT BIND DYSTROGLYCAN AND USES THEREOF” (OREGON HEALTH & SCIENCE UNIVERSITY, priority 2014, published 2017).
